# Test results reported in paper PMC8618187 (Nanomaterials, 2021).
# Read-outs that look alike come from different tables or passages of the source.
# How the values were obtained:
# human macrophages = test: Biocompatibility against human macrophages (MTT); format: cell-based; settings: high concentrations
# Description: Biocompatibility studies of pure PTX, Ms, RMs, PR-Ms, and PT-R-Ms were performed against human macrophages. Ficoll-percoll gradient technique was used to isolate human macrophages. Ficoll solution was prepared by dissolving 5.6 g of ficoll in 9.5 mL deionized water and 5 mL gastrografin to achieve a density of 1.070 g/mL. The fresh human blood (10 cm^3) was diluted three times with Hanks buffer salt solution (HBSS), layered onto a percoll gradient and then centrifuged at 400× g for 5 min to isolate the macrophage layer. The separated cells were suspended in RPMI medium (10% FBS, 100 U/mL penicillin, 0.1 mg/mL streptomycin, and 25 mM HEPES) and incubated at 5% CO2. […] Normal cells were taken as negative controls, while cells treated with 1% Triton X were used as positive controls to investigate the viability.
# in vitro = settings: rat, pH 6.5
# Description: Briefly, the study was conducted on the intestine of healthy rats weighing between 250–300 g. The rats were sacrificed and the abdomen was opened with a middle incision. The intestine was immediately removed, thoroughly washed with Krebs ringer solution (pH 6.5), and cut into pieces of 4–5 cm. The intestine was everted by carefully passing a narrow glass rod from one end of the intestine and then gently rolling it on a glass rod. All the pieces were stored in an oxygenated Krebs ringer solution at 4 °C until further use. […] Each segment was tied at one end with a silk suture, and 1 mL of sample (1 mg/mL) was carefully filled in the sac using a hypodermic syringe and the other end was tied with a silk suture. […] All filled sacs were immersed in tubes filled with 10 mL of oxygenated Krebs solution and incubated at 37 °C under gentle mechanical shaking. The samples were collected at predefined times from the surrounding medium and replaced with the same amount of fresh solution. […] The apparent permeability was calculated using the following equation:Apparent permeability (µg/cm^2) = (concentration × volume)/mucosal surface area
# The mucosal surface area was calculated assuming that the intestine is a cylinder by using the formula:Mucosal surface area (cm^2) = circumference (π × diameter) × length
# [1] = In vivo biodistribution (fluorescence of excised organs and tumors); set-up: species or system rats; settings: oral
# Description: The fluorotagged PT-R-Ms were given orally to rats by oral gavage. After 48 h, rats were sacrificed and their major organs were excised to investigate the formulation distribution within them. The fluorescence intensity of the excised organs (heart, liver, spleen, and kidney) was examined using the iBox Explorer2 (iBox® Explorer2 Imaging Microscope; UVP Ltd. The system was set on a 535/45 nm excitation filter and a 605/50 nm emission filter with the automated BioLite™ MultiSpectral Light Source. Images were taken at 0.17× magnification, and the intensity was kept at 6 using the 3.2 MP OptiChemi 610 camera (Vision Works® LS Acquisition, AnlyticJena, Jena, Germany). An analysis software was used to study the images.
# rats [2] = settings: rat, in vivo, po, 20 mg/kg
# Description: (§1) Healthy, female rats weighing 150 g and aged 10–14 weeks were taken from the animal house. Rats were divided into 4 groups (n = 4) and kept under a standard condition of food and water in the controlled environment. […] The dose (20 mg/kg) was administered orally through oral gavage. […] After 14 days, the rats were sacrificed for blood and serum biochemistry and tissue histology studies [29].
# (§2) The blood from each rat was drawn through cardiac puncture into BD vacutainer blood collection tubes. […] The clear supernatant was carefully removed and stored at −20 °C. Liver function tests (LFTs) including alkaline phosphatase (ALP), serum glutamic-pyruvic transaminase (SGPT), serum glutamic-oxaloacetic transaminase (SGOT) and bilirubin, renal functions tests (RFTs) including urea and creatinine, serum electrolytes (Na, Mg, Ca, and P), glucose and total protein were analyzed using the serum.
# (§3) Changes in the organs weight were measured to evaluate the toxicity of tested formulations. The vital organs (heart, kidneys, liver, and spleen) were removed from the rats after being sacrificed, washed with normal saline, and then weighed individually. The weights of organs from treated groups were compared with a control group and body mass index was calculated using the following formula [30]: organ−body weight index (%)=organ weight/body weight×100%
# (§4) Vital organs (liver, kidney, heart, and spleen) were examined for toxicity and to notice any pathological changes [31]. The organs were stored in 10% formalin solution. A paraffin section (0.5 µm) was cut into the same size as the organ via a rotary microtome and was properly fixed. Tissue sections were then fixed onto glass slides followed by staining with hematoxylin and eosin periodic acid Schiff (PAS). The sections were examined under a microscope for any toxic effect produced by the redox and non-redox micelles.
# [3] = In vitro PTX release with kinetic modelling (with/without GSH); format: physicochemical; settings: without GSH
# Description: Glutathione (GSH)-triggered release was investigated in vitro from Ms, R-Ms, PR-Ms, and PT-R-Ms formulations (without GSH) and from PT-R-Ms in the presence of 20 mM GSH.
# Redox responsive multifunctional micelles remained indolent in the physiological environment and became activated when they reached a reductive environment, which is another approach for targeted site-specific delivery. As a proof-of-concept, glutathione (GSH)-triggered release (to mimic the redox tumor microenvironment) was investigated in vitro from Ms, R-Ms, PR-Ms, and PT-R-Ms formulations (without GSH) and from PT-R-Ms in the presence of 20 mM GSH. The controlled burst release was confirmed by applying kinetic models of drug release (zero-order, Higuchi, Korsmeyer–Peppas, and Hixon Crowell) to the different formulations, and the results are gathered in Table 2. The Korsmeyer–Peppas model was proven to be suitable to explain the release kinetics from the PT-R-Ms, which is a prerequisite for polymeric systems.
# HCT-116 cells [4] = test: Cell apoptosis by flow cytometry (Annexin V FITC/PI); format: cell-based, human; set-up: dose or concentration left out as unconfirmed; settings: HCT-116, 48 h
# Text: After treatment, the cells were harvested and washed twice with cold PBS.
# rats [5] = test: Acute oral toxicity (OECD 425), serum biochemistry, histopathology; settings: single oral dose of 20 mg of PTX/kg, after 14 days
# Description: as §1, §2, §3, §4
# [6] = Oral pharmacokinetics of PTX; format: in vivo, rats
# Text: Healthy female rats weighing 120–150 g were selected and fasted overnight with free access to water and were randomly distributed into four groups and each group had four rats (n = 4).
# HCT-116 cells [7] = test: Cellular uptake of curcumin by fluorescence microscopy; format: cell-based, human; settings: curcumin loaded into PT-R-Ms micelles, HCT-116, 0, 6, 12 h
# Description: To analyze the internalization of curcumin (a P-gP inhibitor) into tumor cells, HCT-116 tumor cells were used. Curcumin as a fluorescent probe was encapsulated within the core of PT-R-Ms micelles following a similar procedure to that mentioned earlier for PTX loaded micelles. The HCT-116 cells were seeded into 6 well plates at a density of 1 × 10^6 cells/well. After 24 h the cells became confluent and were incubated with curcumin-loaded PT-R-Ms for different time periods (0, 6, 12 h). Upon incubation, the medium was removed and the cells were washed with cold PBS. Subsequently, the uptake of curcumin was monitored by fluorescence microscopy (Evos® FL Cell Imaging System, Thermo Fisher Scientific, Waltham, MA, USA). Ex vivo assays based on the tumor tissue slice model were used to analyze the curcumin uptake by inhibition of P-gP efflux pump overexpressed on tumor cells, as reported earlier. Different slides of tumor tissue were prepared and stained with curcumin-loaded PT-R-Ms. Similarly, HCT-116 tumor tissue cells were incubated for different time intervals to monitor the uptake of curcumin.
# [8] = female, rat, plasma, oral gavage, 20 mg/kg
structure (smiles),measurement,setting,value
"CC(=O)O[C@H]1C(=O)[C@@]2(C)[C@H]([C@H](OC(=O)c3ccccc3)[C@]3(O)C[C@H](OC(=O)[C@H](O)[C@@H](NC(=O)c4ccccc4)c4ccccc4)C(C)=C1C3(C)C)[C@]1(OC(C)=O)CO[C@@H]1C[C@@H]2O [PTX, paclitaxel]",toxicity against human macrophages,human macrophages,cytotoxic
same,Papp A→B at 1 mg/mL,in vitro,0.43 ± 0.2 ×10⁻⁶ cm/s
same,Papp B→A at 1 mg/mL,in vitro,2.35 ± 0.2 ×10⁻⁶ cm/s
same,biodistribution: liver,[1],significantly higher uptake in the liver
same,histopathological changes in the liver tissue,rats [2],"cytoplasmic degeneration, necrosis, hemorrhage, and infiltration of inflammatory cells"
same,histopathology of heart tissue,rats [2],"lesions, myocarditis, and infiltration of inflammatory cells"
same,histopathology of kidney tissue,rats [2],"distorted glomeruli, dilated tubules, edema exudate, mild necrosis, and infiltration of inflammatory cells"
same,histopathology of spleen tissue,rats [2],distorted lymphoid architecture
same,Higuchi Model K0,[3],40.117
same,Hixon Crowell Model K0,[3],0.190
same,Korsmeyer–Peppas Model N,[3],0.701
same,Zero Order K0,[3],21.01
same,percentage of apoptotic cells,HCT-116 cells [4],28.57 ± 0.06%
same,"Mortality, tissue damage, or bodyweight change",rats [5],not observed
same,time above the minimum effective concentration / within the therapeutic window,"[6]; MEC 35 ng/mL, oral",2 h
same,bioavailability,"[6]; female, rat, plasma, po, 20 mg/kg",7.5%
same,Cmax,[6]; [8],70.69 ± 0.14 ng/mL
same,half-life,[6]; [8],32.9 ± 2.2 h
same,AUC(0-t),"[6]; female, rat, plasma, oral gavage, 20 mg/kg, read-out: AUC 0-96",4271 ± 8.4 ng·h/mL
same,MRT last,"[6]; female, rat, plasma, oral gavage, 20 mg/kg, read-out: MRT 0-96",54.9 ± 2.7 h
same,Tmax,"[6]; female, rat, plasma, oral gavage, 20 mg/kg, read-out: Tmax",4 ± 0.2 h
same,Tmax,"[6]; oral gavage, 20 mg/kg",2 h
COc1cc(/C=C/C(=O)CC(=O)/C=C/c2ccc(O)c(OC)c2)ccc1O [curcumin],time of maximum curcumin uptake,HCT-116 cells [7],12 h
